Measurements reported in patent US11492385B2, “Long-acting co-agonists of the glucagon and GLP-1 receptors” (Merck Sharp & Dohme Corp., priority 2015, dated 2022).
Like-named read-outs stand apart in the source and are kept apart here. Starred links: 1 amine or outer side, 2 acyl side, 3 side chain; linkers in the order of their positions; H or OH if unused. Non-standard residues stand in square brackets, D forms with d. Residues, ends and D or L forms follow the SMILES beside them. Groups on a side chain read outwards from the residue. *: point of attachment. Phe(4-CH2NH2) = NCc1ccc(C[C@H](N)C(=O)O)cc1; C18 diacid = O=C(O)CCCCCCCCCCCCCCCCC(=O)*; C17 diacid = O=C(O)CCCCCCCCCCCCCCCC(=O)*; αMeW = C[C@](N)(Cc1c[nH]c2ccccc12)C(=O)O; C16 diacid = O=C(O)CCCCCCCCCCCCCCC(=O)*; γGlu = O=C(O)[C@H](CCC(=O)[*:2])N[*:1]; Met(O2) = CS(=O)(=O)CC[C@H](N)C(=O)O; Palmitoyl = CCCCCCCCCCCCCCCC(=O)*; AEEA = NCCOCCOCC(=O)O; Aib = CC(C)(N)C(=O)O

Columns and labels:
human GCGR = molecular target: T1, human GCGR (Homo sapiens, UniProt P47871); test: cAMP activity assay, cells expressing human GCGR; type: cell-based; conditions: for EC50: cAMP production, cells expressing human GCGR, assay buffer with or without 20% human serum (not stated which); for hGCGR/hGLP1R (hTone): ratio of human GCGR EC50 to human GLP1R EC50
T1 construct: expressed in transfected cells; kept under Blasticidin and Hygromycin selection
Description: (§1) Activity of the peptides at the Glucagon receptor (GCGR) and GLP-1 receptor (GLP1R) was measured in a cAMP activity assay. Peptides were dissolved in 100% DMSO and serially diluted to generate 10 point titrations. The peptide solutions were then transferred into 384-well assay plates (150 nL/well). […] Production of cAMP was determined using […] kits (DiscoverX) following manufacturer protocol. The plates were incubated for overnight at room temperature in the dark. Luminescence was measured using an EnVision Multilabel plate reader (Perkin Elmer). Native GLP-1 and Glucagon (Bachem) are used as control peptides. EC50 values were calculated using uses a 4 parameter logistic fit based on the Levenberg-Marquardt algorithm.

human GLP1R = molecular target: T2, human GLP1R (Homo sapiens, UniProt P43220); test: cAMP activity assay, cells expressing human GLP1R; type: cell-based; conditions: cAMP production, assay buffer with or without 20% human serum (not stated which)
T2 construct: expressed in transfected cells; kept under Blasticidin and Hygromycin selection
Description: as §1

T1 sequence (P47871 26-477): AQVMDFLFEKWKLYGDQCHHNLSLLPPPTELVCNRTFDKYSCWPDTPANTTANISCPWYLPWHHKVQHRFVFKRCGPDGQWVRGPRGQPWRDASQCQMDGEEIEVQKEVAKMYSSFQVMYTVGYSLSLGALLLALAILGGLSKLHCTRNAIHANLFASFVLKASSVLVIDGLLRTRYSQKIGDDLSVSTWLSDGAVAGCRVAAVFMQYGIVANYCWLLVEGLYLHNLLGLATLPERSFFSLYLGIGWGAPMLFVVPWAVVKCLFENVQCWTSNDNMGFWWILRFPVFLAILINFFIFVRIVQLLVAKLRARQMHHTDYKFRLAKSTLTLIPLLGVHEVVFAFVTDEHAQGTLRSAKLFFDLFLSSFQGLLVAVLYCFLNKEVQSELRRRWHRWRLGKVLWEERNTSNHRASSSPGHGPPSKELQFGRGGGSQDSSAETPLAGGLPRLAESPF
T2 sequence (P43220 24-463): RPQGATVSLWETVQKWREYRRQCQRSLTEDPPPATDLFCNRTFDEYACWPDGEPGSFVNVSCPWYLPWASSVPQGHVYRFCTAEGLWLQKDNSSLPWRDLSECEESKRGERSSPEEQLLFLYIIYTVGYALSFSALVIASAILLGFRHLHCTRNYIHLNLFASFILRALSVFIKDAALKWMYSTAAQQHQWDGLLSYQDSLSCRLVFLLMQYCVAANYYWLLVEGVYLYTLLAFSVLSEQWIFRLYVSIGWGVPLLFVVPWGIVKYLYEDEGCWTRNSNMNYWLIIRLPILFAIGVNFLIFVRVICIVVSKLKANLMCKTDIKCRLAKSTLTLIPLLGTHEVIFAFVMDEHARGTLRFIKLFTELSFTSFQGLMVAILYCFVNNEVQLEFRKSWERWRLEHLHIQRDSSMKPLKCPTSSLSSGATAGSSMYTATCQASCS

| EC50 (human GCGR; read-out: GCGR EC50 human) [nM] | hGCGR/hGLP1R (hTone) (human GCGR) | EC50 (human GLP1R) [nM] | SMILES | EC50 (human GCGR; GCGR EC50 human) [nM] |
| --- | --- | --- | --- | --- |
| 0.16 | 0.09 | 1.89 | CC(C)C[C@H](NC(=O)[C@H](CC(C)C)NC(=O)[C@H](Cc1c[nH]c2ccccc12)NC(=O)[C@H](CCC(N)=O)NC(=O)[C@@H](NC(=O)[C@H](Cc1ccccc1)NC(=O)[C@H](CCCCNC(=O)COCCOCCNC(=O)COCCOCCNC(=O)CC[C@H](NC(=O)CCCCCCCCCCCCCCC(=O)O)C(=O)O)NC(=O)[C@H](CCC(N)=O)NC(=O)[C@H](C)NC(=O)[C@H](C)NC(=O)[C@H](CCCNC(=N)N)NC(=O)C(C)(C)NC(=O)[C@H](CC(=O)O)NC(=O)[C@H](CC(C)C)NC(=O)[C@H](Cc1ccc(O)cc1)NC(=O)[C@H](CCCCN)NC(=O)[C@H](CO)NC(=O)[C@H](Cc1ccc(O)cc1)NC(=O)[C@H](CC(=O)O)NC(=O)[C@H](CO)NC(=O)[C@@H](NC(=O)[C@H](Cc1ccccc1)NC(=O)[C@@H](NC(=O)CNC(=O)[C@H](CCC(N)=O)NC(=O)[C@@H](CO)NC(=O)[C@@H](N)Cc1c[nH]cn1)[C@@H](C)O)[C@@H](C)O)C(C)C)C(=O)N[C@@H](C)C(=O)N[C@H](C(=O)N[C@@H](CCCCNC(=O)CC[C@H](N)C(=O)O)C(N)=O)[C@@H](C)O [compound 1] (H-H[dS]QGTFTSDYSKYLD[Aib]RAAQK([AEEA-AEEA-γGlu-C16 diacid])FVQWLLATK(γGlu)-NH2) | – |
| – | 1.30 | – | CC(C)C[C@H](NC(=O)[C@H](Cc1ccc(O)cc1)NC(=O)[C@H](CCCCN)NC(=O)[C@H](CO)NC(=O)[C@H](Cc1ccc(O)cc1)NC(=O)[C@H](CC(=O)O)NC(=O)[C@H](CO)NC(=O)[C@@H](NC(=O)[C@H](Cc1ccccc1)NC(=O)[C@@H](NC(=O)CNC(=O)[C@H](CCC(N)=O)NC(=O)C(C)(C)NC(=O)[C@@H](N)Cc1c[nH]cn1)[C@@H](C)O)[C@@H](C)O)C(=O)N[C@@H](CC(=O)O)C(=O)N[C@@H](C)C(=O)N[C@@H](CCCNC(=N)N)C(=O)N[C@@H](C)C(=O)N[C@@H](C)C(=O)N[C@@H](CCCCNC(=O)COCCOCCNC(=O)COCCOCCNC(=O)CC[C@H](NC(=O)CCCCCCCCCCCCCCCC(=O)O)C(=O)O)C(=O)N[C@@H](CC(=O)O)C(=O)N[C@@H](Cc1ccccc1)C(=O)N[C@H](C(=O)N[C@@H](CCC(N)=O)C(=O)N[C@@H](Cc1c[nH]c2ccccc12)C(=O)N[C@@H](CC(C)C)C(=O)N[C@@H](CCS(C)(=O)=O)C(=O)N[C@@H](CC(=O)O)C(=O)N[C@H](C(N)=O)[C@@H](C)O)C(C)C [compound 47] (H-H[Aib]QGTFTSDYSKYLDARAAK([AEEA-AEEA-γGlu-C17 diacid])DFVQWL[Met(O2)]DT-NH2) | – |
| – | 3 | – | CC(C)C[C@H](NC(=O)[C@H](Cc1ccc(O)cc1)NC(=O)[C@H](CCCCN)NC(=O)[C@H](CO)NC(=O)[C@H](Cc1ccc(O)cc1)NC(=O)[C@H](CC(=O)O)NC(=O)[C@H](CO)NC(=O)[C@@H](NC(=O)[C@H](Cc1ccccc1)NC(=O)[C@@H](NC(=O)CNC(=O)[C@H](CCC(N)=O)NC(=O)C(C)(C)NC(=O)[C@@H](N)Cc1c[nH]cn1)[C@@H](C)O)[C@@H](C)O)C(=O)N[C@@H](CC(=O)O)C(=O)N[C@@H](C)C(=O)N[C@@H](CCCNC(=N)N)C(=O)N[C@@H](C)C(=O)N[C@@H](C)C(=O)N[C@@H](CCCCNC(=O)COCCOCCNC(=O)COCCOCCNC(=O)CC[C@H](NC(=O)CCCCCCCCCCCCCCC(=O)O)C(=O)O)C(=O)N[C@@H](CC(=O)O)C(=O)N[C@@H](Cc1ccccc1)C(=O)N[C@H](C(=O)N[C@@H](CCC(N)=O)C(=O)N[C@@](C)(Cc1c[nH]c2ccccc12)C(=O)N[C@@H](CC(C)C)C(=O)N[C@@H](CCS(C)(=O)=O)C(=O)N[C@@H](CC(=O)O)C(=O)N[C@H](C(N)=O)[C@@H](C)O)C(C)C [compound 78] (H-H[Aib]QGTFTSDYSKYLDARAAK([AEEA-AEEA-γGlu-C16 diacid])DFVQ[αMeW]L[Met(O2)]DT-NH2) | – |

The next lines start with the compound.

| SMILES | EC50 (human GCGR; read-out: GCGR EC50 human) [nM] | hGCGR/hGLP1R (hTone) (human GCGR) | EC50 (human GLP1R) [nM] | EC50 (human GCGR; GCGR EC50 human) [nM] |
| --- | --- | --- | --- | --- |
| CC(C)C[C@H](NC(=O)[C@H](Cc1ccc(O)cc1)NC(=O)[C@H](CCCCN)NC(=O)[C@H](CO)NC(=O)[C@H](Cc1ccc(O)cc1)NC(=O)[C@H](CC(=O)O)NC(=O)[C@H](CO)NC(=O)[C@@H](NC(=O)[C@H](Cc1ccccc1)NC(=O)[C@@H](NC(=O)CNC(=O)[C@H](CCC(N)=O)NC(=O)[C@@H](CO)NC(=O)[C@@H](N)Cc1c[nH]cn1)[C@@H](C)O)[C@@H](C)O)C(=O)N[C@@H](CC(=O)O)C(=O)N[C@@H](C)C(=O)N[C@@H](CCCNC(=N)N)C(=O)N[C@@H](C)C(=O)N[C@@H](C)C(=O)N[C@@H](CCCCNC(=O)COCCOCCNC(=O)COCCOCCNC(=O)CC[C@H](NC(=O)CCCCCCCCCCCCCCC(=O)O)C(=O)O)C(=O)N[C@@H](CC(=O)O)C(=O)N[C@@H](Cc1ccccc1)C(=O)N[C@H](C(=O)N[C@@H](CCC(N)=O)C(=O)N[C@@H](Cc1c[nH]c2ccccc12)C(=O)N[C@@H](CC(C)C)C(=O)N[C@@H](CC(C)C)C(=O)N[C@@H](CC(=O)O)C(=O)N[C@H](C(N)=O)[C@@H](C)O)C(C)C [compound 2] (H-H[dS]QGTFTSDYSKYLDARAAK([AEEA-AEEA-γGlu-C16 diacid])DFVQWLLDT-NH2; N-terminus assumed) | 0.03 | 0.11 | 0.274 | – |
| CC(C)C[C@H](NC(=O)[C@H](CC(C)C)NC(=O)[C@H](Cc1c[nH]c2ccccc12)NC(=O)[C@H](CCC(N)=O)NC(=O)[C@@H](NC(=O)[C@H](Cc1ccccc1)NC(=O)[C@H](CC(=O)O)NC(=O)[C@H](CCC(N)=O)NC(=O)[C@H](C)NC(=O)[C@H](C)NC(=O)[C@H](CCCNC(=N)N)NC(=O)C(C)(C)NC(=O)[C@H](CC(=O)O)NC(=O)[C@H](CC(C)C)NC(=O)[C@H](Cc1ccc(O)cc1)NC(=O)[C@H](CCCCN)NC(=O)[C@H](CO)NC(=O)[C@H](Cc1ccc(CNC(=O)COCCOCCNC(=O)COCCOCCNC(=O)CC[C@H](NC(=O)CCCCCCCCCCCCCCC(=O)O)C(=O)O)cc1)NC(=O)[C@H](CC(=O)O)NC(=O)[C@H](CO)NC(=O)[C@@H](NC(=O)[C@H](Cc1ccccc1)NC(=O)[C@@H](NC(=O)CNC(=O)[C@H](CCC(N)=O)NC(=O)C(C)(C)NC(=O)[C@@H](N)Cc1c[nH]cn1)[C@@H](C)O)[C@@H](C)O)C(C)C)C(=O)N[C@@H](C)C(=O)N[C@H](C(=O)N[C@@H](CCCCNC(=O)CC[C@H](N)C(=O)O)C(N)=O)[C@@H](C)O [compound 11] (H-H[Aib]QGTFTSD[Phe(4-CH2NH2)]([AEEA-AEEA-γGlu-C16 diacid])SKYLD[Aib]RAAQDFVQWLLATK(γGlu)-NH2) | – | 4.15 | – | 1.03 |
| CCCCCCCCCCCCCCCC(=O)N[C@@H](CCC(=O)NCCOCCOCC(=O)NCCOCCOCC(=O)NCc1ccc(C[C@H](NC(=O)[C@H](CC(=O)O)NC(=O)[C@H](CO)NC(=O)[C@@H](NC(=O)[C@H](Cc2ccccc2)NC(=O)[C@@H](NC(=O)CNC(=O)[C@H](CCC(N)=O)NC(=O)C(C)(C)NC(=O)[C@@H](N)Cc2c[nH]cn2)[C@@H](C)O)[C@@H](C)O)C(=O)N[C@@H](CO)C(=O)N[C@@H](CCCCN)C(=O)N[C@@H](Cc2ccc(O)cc2)C(=O)N[C@@H](CC(C)C)C(=O)N[C@@H](CC(=O)O)C(=O)N[C@@H](C)C(=O)N[C@@H](CCCNC(=N)N)C(=O)N[C@@H](C)C(=O)N[C@@H](C)C(=O)N[C@@H](CCC(N)=O)C(=O)N[C@@H](CC(=O)O)C(=O)N[C@@H](Cc2ccccc2)C(=O)N[C@H](C(=O)N[C@@H](CCC(N)=O)C(=O)N[C@@H](Cc2c[nH]c3ccccc23)C(=O)N[C@@H](CC(C)C)C(=O)N[C@@H](CCS(C)(=O)=O)C(=O)N[C@@H](CC(=O)O)C(=O)N[C@H](C(N)=O)[C@@H](C)O)C(C)C)cc1)C(=O)O [compound 13] (H-H[Aib]QGTFTSD[Phe(4-CH2NH2)]([AEEA-AEEA-γGlu-Palmitoyl])SKYLDARAAQDFVQWL[Met(O2)]DT-NH2) | – | 2.19 | – | – |
| CC(C)C[C@H](NC(=O)[C@H](Cc1ccc(O)cc1)NC(=O)[C@H](CCCCN)NC(=O)[C@H](CO)NC(=O)[C@H](Cc1ccc(O)cc1)NC(=O)[C@H](CC(=O)O)NC(=O)[C@H](CO)NC(=O)[C@@H](NC(=O)[C@H](Cc1ccccc1)NC(=O)[C@@H](NC(=O)CNC(=O)[C@H](CCC(N)=O)NC(=O)[C@@H](CO)NC(=O)[C@@H](N)Cc1c[nH]cn1)[C@@H](C)O)[C@@H](C)O)C(=O)N[C@@H](CC(=O)O)C(=O)N[C@@H](C)C(=O)N[C@@H](CCCNC(=N)N)C(=O)N[C@@H](C)C(=O)N[C@@H](C)C(=O)N[C@@H](CCC(N)=O)C(=O)N[C@@H](CCCCNC(=O)COCCOCCNC(=O)COCCOCCNC(=O)CC[C@H](NC(=O)CCCCCCCCCCCCCCCCC(=O)O)C(=O)O)C(=O)N[C@@H](Cc1ccccc1)C(=O)N[C@H](C(=O)N[C@@H](CCC(N)=O)C(=O)N[C@@H](Cc1c[nH]c2ccccc12)C(=O)N[C@@H](CC(C)C)C(=O)N[C@@H](CC(C)C)C(=O)N[C@@H](CC(=O)O)C(=O)N[C@H](C(N)=O)[C@@H](C)O)C(C)C [compound 21] (H-H[dS]QGTFTSDYSKYLDARAAQK([AEEA-AEEA-γGlu-C18 diacid])FVQWLLDT-NH2) | – | 0.17 | – | – |
